The values below come from ChEMBL document CHEMBL3046905, “Synthesis, biological evaluation and molecular docking studies of 1,3-benzoxazine derivatives as potential anticancer agents” (Med Chem Res, 2013).

The structures appear in SMILES notation. Activity calls are given as the source filed them. No cut-off for these calls is given here.

Test [1] concerns MCF7. Description: Growth inhibition of Homo sapiens (human) MCF7 cells after 48 hr by MTT assay. Type of test: functional, cell-based. (Tetrazolium dyes change colour on reduction, which living cells bring about.)
Test [2] relates to MCF7. The test can be described thus: Growth inhibition of Homo sapiens (human) MCF7 cells at 60 ug/ml after 48 hr by MTT assay relative to control. As to conditions: MCF7, 48 h, read-out: GI. In kind it is functional.
Test [3] concerns MCF7. Description: Growth inhibition of Homo sapiens (human) MCF7 cells at 30 ug/ml after 48 hr by MTT assay relative to control. In kind it is functional. The note with it: MCF7, 48 h, read-out: GI.
For test [4], the system named is MCF7. Description: Growth inhibition of Homo sapiens (human) MCF7 cells at 15 ug/ml after 48 hr by MTT assay relative to control. Type of test: functional. As to conditions: for inhibition of growth at 15 µg/mL: MCF7, 48 h, read-out: GI.
Test [5] has as its system MCF7. The test can be described thus: Growth inhibition of Homo sapiens (human) MCF7 cells at 7.5 ug/ml after 48 hr by MTT assay relative to control. Type of test: functional. As to conditions: for inhibition of growth at 7.5 µg/mL: MCF7, 48 h, read-out: GI.
Where [6] appears, read: Homo sapiens, MCF7, 48 h, read-out: IC50.

By IC50 is commonly meant the concentration that inhibits the measured activity by half. Turning to `COc1cccc2c1OCN(c1ccc3oc(-c4ccccc4)cc(=O)c3c1)C2`, in the test on MCF7 [1] (setting [6]), the IC50 is 17 µM. In addition, in the test on MCF7 [2], the inhibition of growth at 60 µg/mL came out at 91.9%. Besides, the inhibition of growth at 30 µg/mL in the test on MCF7 [3] is 67.8%. Moreover, the inhibition of growth at 15 µg/mL in the test on MCF7 [4] came to 54%. Moreover, the inhibition of growth at 7.5 µg/mL in the test on MCF7 [5] was found to be 32.5%.

For the molecule `COc1cc2c(c(OC)c1)OCN(c1ccc3oc(-c4ccccc4)cc(=O)c3c1)C2`, the half-maximal inhibitory concentration (IC50) in the test on MCF7 [1] (setting [6]) amounted to 8.01 µM. Moreover, in the test on MCF7 [2], the inhibition of growth at 60 µg/mL turned out to be 99.1%. The inhibition of growth at 30 µg/mL with MCF7 [3] was found to be 79%. Besides, the inhibition of growth at 15 µg/mL in the test with MCF7 [4] was determined as 60%. Besides, the inhibition of growth at 7.5 µg/mL in the test on MCF7 [5] stood at 48.9%.

Regarding `O=c1cc(-c2ccccc2)oc2ccc(N3COc4c(Br)cccc4C3)cc12`, in the test with MCF7 [1] (setting [6]), the IC50 was found to be 19.6 µM. For the same molecule, in the test on MCF7 [2], the inhibition of growth at 60 µg/mL was 81.8%. Also, the inhibition of growth at 30 µg/mL with MCF7 [3] turned out to be 71.6%. The inhibition of growth at 15 µg/mL with MCF7 [4] is 37.8%. In the test with MCF7 [5], the “growth inhibition (GI)” value is “inactive”.

Consider `Cc1ccc2c(c1)CN(c1ccc3oc(-c4ccccc4)cc(=O)c3c1)CO2`, for which, in the test on MCF7 [1] (setting [6]), the 50% inhibitory concentration (IC50) stood at 29.8 µM. Besides, in the test on MCF7 [2], the inhibition of growth at 60 µg/mL stood at 79.5%. In addition, the inhibition of growth at 30 µg/mL in the test on MCF7 [3] amounted to 56.9%. Also, in the test with MCF7 [4], the inhibition of growth at 15 µg/mL is 31%. Further, the inhibition of growth at 7.5 µg/mL with MCF7 [5] turned out to be 16.5%.

Regarding `COc1cc2c(c(OC)c1)OCN(c1ccc3c(=O)cc(-c4ccccc4)oc3c1)C2`, the IC50 in the test with MCF7 [1] (setting [6]) amounted to 12.1 µM. In addition, the inhibition of growth at 60 µg/mL with MCF7 [2] came to 88.9%. Besides, the inhibition of growth at 30 µg/mL with MCF7 [3] was determined as 75.9%. Further, the inhibition of growth at 15 µg/mL in the test with MCF7 [4] worked out at 62.9%. In the test on MCF7 [5], the inhibition of growth at 7.5 µg/mL is 45.8%.

Turning to `O=c1cc(-c2ccccc2)oc2cc(N3COc4ccccc4C3)ccc12`, the IC50 entry in the test on MCF7 [1] (mcf7) is listed as “Not Active”. In addition, in the test on MCF7 [2], the inhibition of growth at 60 µg/mL amounted to 19.3%. Further, the inhibition of growth at 30 µg/mL with MCF7 [3] amounted to 12.7%. In addition, the inhibition of growth at 15 µg/mL in the test on MCF7 [4] is 3.89%. Further, in the test on MCF7 [5], the inhibition of growth at 7.5 µg/mL was found to be 2.65%.

With `COc1cccc2c1C(=O)c1c(O)c3c(c(O)c1C2=O)C[C@@](O)(C(=O)CO)C[C@@H]3O[C@H]1C[C@H](N)[C@H](O)[C@H](C)O1` [DOXORUBICIN], the half-maximal inhibitory concentration (IC50) in the test with MCF7 [1] (setting [6]) amounted to 7.2 µM. Further, in the test on MCF7 [2], the inhibition of growth at 60 µg/mL amounted to 99.5%. In the test on MCF7 [3], the inhibition of growth at 30 µg/mL was determined as 88.9%. Also, in the test on MCF7 [4], the inhibition of growth at 15 µg/mL came out at 70.3%. Besides, in the test on MCF7 [5], the inhibition of growth at 7.5 µg/mL was 50.8%.

On to `O=c1cc(-c2ccccc2)oc2ccc(N3COc4c(Br)cc(Br)cc4C3)cc12`, for which the IC50 entry in the test on MCF7 [1] (mcf7) is “Not Active”. For the same molecule, the inhibition of growth at 60 µg/mL with MCF7 [2] was determined as 34.5%. Further, the inhibition of growth at 30 µg/mL in the test on MCF7 [3] amounted to 16.1%. Also, the inhibition of growth at 15 µg/mL with MCF7 [4] worked out at 13.6%. In addition, the inhibition of growth at 7.5 µg/mL in the test on MCF7 [5] was 6.54%.

`O=c1cc(-c2ccccc2)oc2cc(N3COc4c(cccc4[N+](=O)[O-])C3)ccc12`: the IC50 entry with MCF7 [1] (mcf7) is “Not Active”. In addition, the inhibition of growth at 60 µg/mL in the test on MCF7 [2] was 15.7%. In addition, the inhibition of growth at 30 µg/mL in the test with MCF7 [3] worked out at 5.65%. In addition, in the test with MCF7 [4], the inhibition of growth at 15 µg/mL stood at 1.96%. The “growth inhibition (GI)” value in the test on MCF7 [5] is “inactive”.

For `Cc1cc(C)c2c(c1)CN(c1ccc3c(=O)cc(-c4ccccc4)oc3c1)CO2`, in the test with MCF7 [1] (setting [6]), the IC50 was determined as 61.9 µM. Further, in the test on MCF7 [2], the inhibition of growth at 60 µg/mL came to 48.4%. The inhibition of growth at 30 µg/mL in the test with MCF7 [3] was determined as 26.8%. Further, the “growth inhibition (GI)” value in the test with MCF7 [4] was “inactive”. Further, in the test with MCF7 [5], the inhibition of growth at 7.5 µg/mL turned out to be 11.2%.

Turning to `O=c1cc(-c2ccccc2)oc2ccc(N3COc4c(cccc4[N+](=O)[O-])C3)cc12`, the IC50 in the test on MCF7 [1] (setting [6]) came out at 28.4 µM. In the test with MCF7 [2], the inhibition of growth at 60 µg/mL was 72.9%. For the same molecule, in the test on MCF7 [3], the inhibition of growth at 30 µg/mL is 61.9%. The inhibition of growth at 15 µg/mL in the test on MCF7 [4] was 55.9%. Further, the inhibition of growth at 7.5 µg/mL in the test on MCF7 [5] was 8.2%.

For the molecule `O=c1cc(-c2ccccc2)oc2cc(N3COc4c(Br)cc(Br)cc4C3)ccc12`, the IC50 entry with MCF7 [1] (mcf7) was “Not Active”. For the same molecule, in the test on MCF7 [2], the inhibition of growth at 60 µg/mL came to 26.5%. Further, the inhibition of growth at 30 µg/mL in the test on MCF7 [3] came out at 11.1%. Besides, the inhibition of growth at 15 µg/mL in the test on MCF7 [4] was 1.64%. Besides, in the test with MCF7 [5], the inhibition of growth at 7.5 µg/mL came out at 1.48%.

`Cc1cccc2c1OCN(c1ccc3oc(-c4ccccc4)cc(=O)c3c1)C2`: the half-inhibitory concentration (IC50) in the test on MCF7 [1] (setting [6]) came out at 14.3 µM. In the test on MCF7 [2], the inhibition of growth at 60 µg/mL stood at 85.1%. Further, the inhibition of growth at 30 µg/mL in the test on MCF7 [3] was determined as 72.4%. Also, in the test with MCF7 [4], the inhibition of growth at 15 µg/mL came to 60.9%. In addition, in the test on MCF7 [5], the inhibition of growth at 7.5 µg/mL stood at 30.4%.

For the molecule `O=c1cc(-c2ccccc2)oc2ccc(N3COc4c(Cl)cc(Cl)cc4C3)cc12`, the IC50 in the test with MCF7 [1] (setting [6]) was determined as 12 µM. The inhibition of growth at 60 µg/mL with MCF7 [2] came out at 80.3%. The inhibition of growth at 30 µg/mL in the test with MCF7 [3] was 74%. Besides, the inhibition of growth at 15 µg/mL in the test with MCF7 [4] came out at 61.3%. Besides, in the test on MCF7 [5], the inhibition of growth at 7.5 µg/mL was found to be 32.8%.

As to `O=c1cc(-c2ccccc2)oc2cc(N3COc4c(Br)cccc4C3)ccc12`, in the test on MCF7 [1] (mcf7), the IC50 entry was “Not Active”. Besides, the inhibition of growth at 60 µg/mL with MCF7 [2] is 19.5%. For the same molecule, in the test on MCF7 [3], the inhibition of growth at 30 µg/mL was 7.89%. In addition, the inhibition of growth at 15 µg/mL with MCF7 [4] was determined as 5.64%. In addition, the inhibition of growth at 7.5 µg/mL in the test on MCF7 [5] worked out at 2.21%.

As to `Cc1cccc2c1OCN(c1ccc3c(=O)cc(-c4ccccc4)oc3c1)C2`, the IC50 in the test on MCF7 [1] (setting [6]) was 14.9 µM. For the same molecule, in the test on MCF7 [2], the inhibition of growth at 60 µg/mL was 66.6%. For the same molecule, the inhibition of growth at 30 µg/mL with MCF7 [3] was 57.8%. For the same molecule, the inhibition of growth at 15 µg/mL in the test with MCF7 [4] worked out at 54.9%. For the same molecule, the inhibition of growth at 7.5 µg/mL in the test on MCF7 [5] was 43.9%.

Take `O=c1cc(-c2ccccc2)oc2ccc(N3COc4ccccc4C3)cc12`: the IC50 in the test on MCF7 [1] (setting [6]) turned out to be 27.5 µM. Also, the inhibition of growth at 60 µg/mL in the test with MCF7 [2] is 92.7%. In addition, in the test with MCF7 [3], the inhibition of growth at 30 µg/mL was found to be 68.5%. For the same molecule, the inhibition of growth at 15 µg/mL in the test with MCF7 [4] was found to be 34%. For the same molecule, in the test with MCF7 [5], the inhibition of growth at 7.5 µg/mL was found to be 8.7%.

As to `O=c1cc(-c2ccccc2)oc2cc(N3COc4c(Cl)cc(Cl)cc4C3)ccc12`, the IC50 in the test on MCF7 [1] (setting [6]) amounted to 44.5 µM. In the test with MCF7 [2], the inhibition of growth at 60 µg/mL was determined as 68.8%. For the same molecule, the inhibition of growth at 30 µg/mL with MCF7 [3] was 34.6%. Further, the inhibition of growth at 15 µg/mL in the test on MCF7 [4] came to 11.8%. The “growth inhibition (GI)” value in the test on MCF7 [5] was “inactive”.
